Measured values as given in US20070128217A1 (priority 2003, published 2007).

Key:
[1] = test system: antibodies in sera from SARS patients (sera 1a, 1b, 2, 6, 37, 62, London, SARS-yellow, SARS-green); format: binding, human; set-up: Binding of serum 6 to linear peptides of protein X1 of SARS-CoV Urbani / Binding of serum 37 to linear peptides of protein X1 of SARS-CoV Urbani / Binding of serum 6 to looped/cyclic peptide (PEPSCAN-ELISA) / Binding of serum 37 to looped/cyclic peptide (PEPSCAN-ELISA) / Binding of serum 37 to looped/cyclic peptides of protein X1 of SARS-CoV Urbani / Binding of serum 6 to linear peptides of protein X2 / Binding of serum 37 to linear peptides of protein X2 / Binding of serum 37 to looped/cyclic peptides of protein X2 of SARS-CoV Urbani / Binding of serum 6 to linear peptides of protein M of SARS-CoV Urbani / Binding of serum 37 to linear peptides of protein M of SARS-CoV Urbani / Binding of serum 6 to looped/cyclic peptides of protein M of SARS-CoV Urbani / Binding of serum 37 to looped/cyclic peptides of protein M of SARS-CoV Urbani / Binding of serum 6 to linear peptides of protein X3 of SARS-CoV Urbani / Binding of serum 37 to linear peptides of protein X3 of SARS-CoV Urbani / Binding of serum 37 to looped/cyclic peptides of protein X3 of SARS-CoV Urbani / Binding of serum 6 to linear peptides of protein X4 of SARS-CoV Urbani / Binding of serum 37 to linear peptides of protein X4 of SARS-CoV Urbani / Binding of serum 37 to looped/cyclic peptides of protein X4 of SARS-CoV Urbani / Binding of serum 6 to linear peptides of protein X5 of SARS-CoV Urbani / Binding of serum 37 to linear peptides of protein X5 of SARS-CoV Urbani / Binding of serum 37 to looped/cyclic peptides of protein X5 of SARS-CoV Urbani / Binding of serum 6 to linear peptides of protein N of SARS-CoV Urbani / Binding of serum 37 to linear peptides of protein N of SARS-CoV Urbani / Binding of serum 6 to linear peptide (PEPSCAN-ELISA) / Binding of serum 1a to looped/cyclic peptides of protein N of SARS-CoV Urbani / Binding of serum 1b to looped/cyclic peptides of protein N of SARS-CoV Urbani / Binding of serum 2 to looped/cyclic peptides of protein N of SARS-CoV Urbani / Binding of serum 6 to looped/cyclic peptides of protein N of SARS-CoV Urbani / Binding of serum 37 to looped/cyclic peptides of protein N of SARS-CoV Urbani / Binding of serum 62 to looped/cyclic peptides of protein N of SARS-CoV Urbani / Binding of serum London to looped/cyclic peptides of protein N of SARS-CoV Urbani / Binding of serum SARS-green to looped/cyclic peptides of protein N of SARS-CoV Urbani: unit not given here
[2] = test system: control sera (pooled serum of ten healthy LUMC hospital workers; commercial negative donor pooled serum from the Dutch bloodbank); format: binding, human; set-up: Binding of Control serum LUMC to linear peptides / Binding of Control serum Blood-bank to linear peptides / Binding of Control serum LUMC to looped peptides / Binding of Control Serum Blood-Bank to Looped peptides / Binding of Control serum LUMC to linear peptides of the protein M of SARS-CoV Urbani / Binding of Control serum Blood-bank to linear peptides of the protein M of SARS-CoV Urbani / Binding of Control serum LUMC to looped peptides of the protein M of SARS-CoV Urbani / Binding of Control Serum Blood-Bank to Looped peptides of the protein M of SARS-CoV Urbani: unit not given here
[3] = test system: rabbit serum obtained by immunizing a rabbit with the SARS-CoV strain Frankfurt 1; format: binding; set-up: Binding of a rabbit serum to linear peptides / Binding of a rabbit serum to looped peptides / Rabbit serum linear peptides / Rabbit serum looped peptides / Binding of a rabbit serum to linear peptides of protein N of SARS-CoV Urbani (Rabbit serum linear peptides) / Binding of a rabbit serum to looped/cyclic peptides of protein N of SARS-CoV Urbani (Rabbit serum looped peptides): unit not given here

DIKDLPKEITVATSR
Binding of serum 1a to linear peptides of protein M of SARS-CoV Urbani [1]: 0.7
Binding of serum 1a to looped/cyclic peptides of protein M of SARS-CoV Urbani [1]: 0.6
Binding of serum 1b to linear peptides of protein M of SARS-CoV Urbani [1]: 0.5
Binding of serum 1b to looped/cyclic peptides of protein M of SARS-CoV Urbani [1]: 0.6
Binding of serum 2 to linear peptides of protein M of SARS-CoV Urbani [1]: 0.5
Binding of serum 2 to looped/cyclic peptides of protein M of SARS-CoV Urbani [1]: 0.7
Binding of serum 6 to linear peptides of protein M of SARS-CoV Urbani [1]: 0.5
Binding of serum 6 to looped/cyclic peptides of protein M of SARS-CoV Urbani [1]: 0.8
Binding of serum 37 to linear peptides of protein M of SARS-CoV Urbani [1]: 0.6
Binding of serum 37 to looped/cyclic peptides of protein M of SARS-CoV Urbani [1]: 0.9
Binding of serum 62 to linear peptides of protein M of SARS-CoV Urbani [1]: 0.5
Binding of serum 62 to looped/cyclic peptides of protein M of SARS-CoV Urbani [1]: 0.7
Binding of serum London to linear peptides of protein M of SARS-CoV Urbani [1]: 0.4
Binding of serum London to looped/cyclic peptides of protein M of SARS-CoV Urbani [1]: 0.3
Binding of serum SARS-green to linear peptides of protein M of SARS-CoV Urbani [1]: 0.5
Binding of serum SARS-green to looped/cyclic peptides of protein M of SARS-CoV Urbani [1]: 0.4
Binding of serum SARS-yellow to linear peptides of protein M of SARS-CoV Urbani [1]: 0.2
Binding of serum SARS-yellow to looped/cyclic peptides of protein M of SARS-CoV Urbani [1]: 0.7
Binding of Control Serum Blood-Bank to Looped peptides of the protein M of SARS-CoV Urbani [2]: 0.8
Binding of Control serum Blood-bank to linear peptides of the protein M of SARS-CoV Urbani [2]: 0.6
Binding of Control serum LUMC to linear peptides of the protein M of SARS-CoV Urbani [2]: 0.5
Binding of Control serum LUMC to looped peptides of the protein M of SARS-CoV Urbani [2]: 0.9
Rabbit serum linear peptides [3]: 0.2
Rabbit serum looped peptides [3]: 0.3

DLPKEITVATSRTLS
Binding of serum 1a to linear peptides of protein M of SARS-CoV Urbani [1]: 0.7
Binding of serum 1a to looped/cyclic peptides of protein M of SARS-CoV Urbani [1]: 0.5
Binding of serum 1b to linear peptides of protein M of SARS-CoV Urbani [1]: 0.2
Binding of serum 1b to looped/cyclic peptides of protein M of SARS-CoV Urbani [1]: 0.5
Binding of serum 2 to linear peptides of protein M of SARS-CoV Urbani [1]: 0.7
Binding of serum 2 to looped/cyclic peptides of protein M of SARS-CoV Urbani [1]: 0.6
Binding of serum 6 to linear peptides of protein M of SARS-CoV Urbani [1]: 0.2
Binding of serum 6 to looped/cyclic peptides of protein M of SARS-CoV Urbani [1]: 0.8
Binding of serum 37 to linear peptides of protein M of SARS-CoV Urbani [1]: 0.5
Binding of serum 37 to looped/cyclic peptides of protein M of SARS-CoV Urbani [1]: 0.7
Binding of serum 62 to linear peptides of protein M of SARS-CoV Urbani [1]: 0.7
Binding of serum 62 to looped/cyclic peptides of protein M of SARS-CoV Urbani [1]: 0.6
Binding of serum London to linear peptides of protein M of SARS-CoV Urbani [1]: 0.3
Binding of serum London to looped/cyclic peptides of protein M of SARS-CoV Urbani [1]: 0.4
Binding of serum SARS-green to linear peptides of protein M of SARS-CoV Urbani [1]: 0.3
Binding of serum SARS-green to looped/cyclic peptides of protein M of SARS-CoV Urbani [1]: 0.4
Binding of serum SARS-yellow to linear peptides of protein M of SARS-CoV Urbani [1]: 0.0
Binding of serum SARS-yellow to looped/cyclic peptides of protein M of SARS-CoV Urbani [1]: 0.7
Binding of Control Serum Blood-Bank to Looped peptides of the protein M of SARS-CoV Urbani [2]: 0.7
Binding of Control serum Blood-bank to linear peptides of the protein M of SARS-CoV Urbani [2]: 0.5
Binding of Control serum LUMC to linear peptides of the protein M of SARS-CoV Urbani [2]: 0.2
Binding of Control serum LUMC to looped peptides of the protein M of SARS-CoV Urbani [2]: 0.7
Rabbit serum linear peptides [3]: 0.1
Rabbit serum looped peptides [3]: 0.3

RWQLALYKGFQFICN
Binding of serum 1a to linear peptides of protein X1 of SARS-CoV Urbani [1]: 0.7
Binding of serum 1a to looped/cyclic peptide (PEPSCAN-ELISA) [1]: 0.6
Binding of serum 1b to linear peptides of protein X1 of SARS-CoV Urbani [1]: 0.5
Binding of serum 1b to looped/cyclic peptide (PEPSCAN-ELISA) [1]: 0.4
Binding of serum 2 to linear peptides of protein X1 of SARS-CoV Urbani [1]: 0.5
Binding of serum 2 to looped/cyclic peptide (PEPSCAN-ELISA) [1]: 0.5
Binding of serum 6 to linear peptides of protein X1 of SARS-CoV Urbani [1]: 0.4
Binding of serum 6 to looped/cyclic peptide (PEPSCAN-ELISA) [1]: 0.9
Binding of serum 37 to linear peptides of protein X1 of SARS-CoV Urbani [1]: 0.6
Binding of serum 37 to looped/cyclic peptide (PEPSCAN-ELISA) [1]: 0.6
Binding of serum 62 to linear peptides of protein X1 of SARS-CoV Urbani [1]: 0.5
Binding of serum 62 to looped/cyclic peptide (PEPSCAN-ELISA) [1]: 0.6
Binding of serum London to linear peptides of protein X1 of SARS-CoV Urbani [1]: 0.3
Binding of serum London to looped/cyclic peptide (PEPSCAN-ELISA) [1]: 1.4
Binding of serum SARS-green to linear peptides of protein X1 of SARS-CoV Urbani [1]: 0.3
Binding of serum SARS-green to looped/cyclic peptide (PEPSCAN-ELISA) [1]: 0.3
Binding of serum SARS-yellow to linear peptides of protein X1 of SARS-CoV Urbani [1]: 0.2
Binding of serum SARS-yellow to looped/cyclic peptide (PEPSCAN-ELISA) [1]: 0.6
Binding of Control Serum Blood-Bank to Looped peptides [2]: 0.6
Binding of Control serum Blood-bank to linear peptides [2]: 0.6
Binding of Control serum LUMC to linear peptides [2]: 0.4
Binding of Control serum LUMC to looped peptides [2]: 0.6
Binding of a rabbit serum to linear peptides [3]: 0.3
Binding of a rabbit serum to looped peptides [3]: 0.9
